Reference: US20260027243A1, “AMPHIPHILIC COMPOUNDS FOR ATTENUATING NEUROTOXICITY OF AMYLOID-beta OLIGOMERS AND DIAGNOSTIC METHODS” (THE BOARD OF TRUSTEES OF THE UNIVERSITY OF ILLINOIS, priority 2022, published 2026)

Key:
Aβ42 fibrils = target: T1, Aβ42 fibrils (Homo sapiens, UniProt P05067); experiment: Fluorescence saturation binding assay with Aβ42 fibrils; conditions: read-out: Kd value to Aβ42 fibrils
T1 construct: commercial Aβ42 monomer powder (from GL biochem); purchased GL biochem
Description: Preparation of the Aβ42 Fibrils and Aβ42 Oligomers. Aβ42 fibrils: 1 mg of commercial Aβ42 monomer powder (from GL biochem) was dissolved in 1 mL 1,1,1,3,3,3-hexafluoro-2-propanol (HFIP) at room temperature and incubated for 1 h. The resulting solution was divided equally into two Eppendorf tubes. The solution in each Eppendorf tube containing 0.5 mg Aβ42 monomer was then evaporated overnight and dried by vacuum centrifuge to generate monomeric films. […] Aβ42 fibrils solution was prepared by dissolving the 0.5 mg monomeric films in 1.1 mL PBS buffer (with final DMSO concentration less than 1%) and stirring at 37° C. for 3 days.
(§1) In Vitro Saturation Binding Studies with Aβ42 Fibrils and Aβ42 Oligomers. To a solution of increasing concentrations of compounds, a fixed concentration of the generated aggregated Aβ42 fibrils or Aβ42 oligomers solutions (5 to 15 NM) was added to yield a total volume of 100 μL. Nonspecific binding was determined […]. The mixture was incubated for 15 min at room temperature. All fluorescence data were obtained on a SpectraMax M2e plate reader (Molecular Devices). The fluorescent intensity was measured at the corresponding emission wavelength of each compound, and the Kd binding curves were generated by GraphPad Prism 8.0 with one site-specific binding model. Equation: Y=Bmax*X/(Kd+X).

Aβ42 oligomers = target: T2, Aβ42 oligomers (Homo sapiens, UniProt P05067); experiment: Fluorescence saturation binding assay with Aβ42 oligomers; conditions: read-out: Kd value to Aβ42 oligomers
T2 construct: commercial Aβ42 monomer powder (from GL biochem); purchased GL biochem
Description: Aβ42 oligomers: The 0.5 mg monomeric films were dissolved in 1.1 mL PBS buffer (with final DMSO concentration less than 1%) and incubated at 4° C. overnight. The resulting solution was then centrifuged at 3000 rpm for 15 mins to remove the insoluble aggregates. The clear supernatant was then used for the following experiments. Aβ42 oligomers concentration was checked by measuring the absorbance of the supernatant at 280 nm.
as §1

[1] = Log D by octanol-PBS partition; assay type: physicochemical; conditions: DCM compounds
Description: Log D measurements. The Log D value was measured following a published procedure using slight modifications. In general, compounds in 0.5 mL octanol was subjected to partition with 0.5 mL octanol-saturated PBS. The whole mixture was stirred vigorously for 5 min, and centrifuged at 2,000 rpm for 5 min. The top octanol layer was separated for later fluorescence measurement. The remaining PBS layer was partitioned with 0.5 mL PBS-saturated octanol, and the second top octanol layer was then separated after vigorous stirring and centrifuging at 2,000 rpm for another 5 min. The two octanol layers' fluorescence spectra were recorded. The log D value was calculated by the fluorescence intensity ratio at the compounds' emission wavelength for the above two octanol extractions.

[2] = system: human neuroblastoma cells (SH-SY5Y); experiment: Cytotoxicity of DCM compounds in SH-SY5Y cells; assay type: cell-based; conditions: at 2 μM
Description: Fluorescence Imaging of 5×FAD Mouse Brain Sections and blood-brain barrier (BBB) permeability. To confirm the developed compounds can also bind to native Aβ aggregates, we performed fluorescence imaging studies and colocalization experiments on 5×FAD mouse brain sections. […] This further supports that the compounds are selective and can bind to native soluble Aβ oligomers. Before investigating the blood-brain barrier (BBB) permeability of the developed compounds, their neurotoxicity was measured first (FIG. 12). […] DCM-OH-2 leads to less than 80% cell viability even at 2 μM, which is probably due to its poor solubility. Nevertheless, the DCM-OH-2-DT was chosen as the candidate to test the blood-brain barrier (BBB) permeability. 12-month-old AD mice were treated with compound DCM-OH-2-DT (0.1 mg/Kg) for 10 days via intraperitoneal injection. At the end of treatment, mice brains were harvested and colocalization experiments were performed on the mice brain sections.

T1 sequence (P05067 672-713 limits assumed): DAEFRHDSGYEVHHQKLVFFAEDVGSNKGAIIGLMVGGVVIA
T2 sequence (P05067 672-713 limits assumed): as above

- Kd (Aβ42 fibrils): 80 nM
- Kd (Aβ42 oligomers): 120 nM
- logD [1]: 0.96 ± 0.07
SMILES: N#CC(C#N)=C1C=C(/C=C/C=C/c2ccc(O)cc2)Oc2ccccc21 [DCM-OH-2]
- cell viability [2]: less than 80%
